According to patent US12655116B2, “Substituted isophthalic acid diamides” (Bayer Aktiengesellschaft, priority 2020, dated 2026):

Assays:
PHBPU [1] = assay: Post-emergence herbicidal action against PHBPU; type: in vivo, Pharbitis purpurea; conditions: Ipomoea purpurea, 504 h, dosage 20 g/ha
Method in brief: (§1)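 A WP or EC formulation diluted in water with 0.2% wetting agent was sprayed at 600 to 800 l/ha onto one-leaf-stage plants grown in sandy loam. About 3 weeks later, action was rated visually in percent, 100% being dead plants.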

POLCO = assay: Post-emergence herbicidal action against POLCO; type: in vivo, Polygonum convolvulus; conditions: Fallopia convolvulus, 504 h, dosage 20 g/ha
Method in brief: as §1

AMARE [2] = assay: Post-emergence herbicidal action against AMARE; type: in vivo, Amaranthus retroflexus; conditions: Amaranthus retroflexus, 504 h, 20 g/ha, visual assessment about 3 weeks after treatment, 100% = plants have died, 0% = like control plants
Method in brief: as §1

HORMU [3] = assay: Post-emergence herbicidal action against HORMU; type: in vivo, Hordeum murinum; conditions: Hordeum murinum, 504 h, dosage 20 g/ha
Method in brief: as §1

LOLRI = assay: Pre-emergence herbicidal action against LOLRI; type: in vivo, Lolium rigidum; conditions: Lolium rigidum, 504 h, 80 g/ha
Method in brief: (§2)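 Greenhouse pots of sandy loam held seeds covered with soil, onto which the compound was applied before emergence. An aqueous suspension or emulsion of WP or EC was used at 600 to 800 l/ha with 0.2% wetting agent. Percent damage was judged visually at 3 weeks.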

VERPE [4] = assay: Post-emergence herbicidal action against VERPE; type: in vivo, Veronica persica; conditions: Veronica persica, 504 h, 20 g/ha
Method in brief: as §1

DIGSA [5] = assay: Pre-emergence herbicidal action against DIGSA; type: in vivo, Digitaria sanguinalis; conditions: Digitaria sanguinalis, 504 h
Method in brief: as §2

STEME [6] = assay: Post-emergence herbicidal action against STEME; type: in vivo, Stellaria media; conditions: Stellaria media, 504 h
Method in brief: as §1

AVEFA [7] = assay: Pre-emergence herbicidal action against AVEFA; type: in vivo, Avena fatua; conditions: Avena fatua, 504 h; 80 g/ha, pre-emergence
Method in brief: as §2

ALOMY [8] = assay: Pre-emergence herbicidal action against ALOMY; type: in vivo, Alopecurus myosuroides; conditions: Alopecurus myosuroides, 504 h; 80 g/ha, pre-emergence, scored visually after 3 weeks vs untreated controls (100% = plants have died, 0% = like control plants)
Method in brief: as §2

ALOMY [9] = assay: Post-emergence herbicidal action against ALOMY; type: in vivo, Alopecurus myosuroides; conditions: Alopecurus myosuroides, 504 h, dosage 20 g/ha, visual assessment about 3 weeks after treatment vs untreated controls
Method in brief: as §1

STEME [10] = assay: Pre-emergence herbicidal action against STEME; type: in vivo, Stellaria media; conditions: Stellaria media, 504 h
Method in brief: as §2

ECHCG [11] = assay: Pre-emergence herbicidal action against ECHCG; type: in vivo, Echinochloa crus-galli; conditions: Echinochloa crus-galli, 504 h, 80 g/ha
Method in brief: as §2

MATIN [12] = assay: Post-emergence herbicidal action against MATIN; type: in vivo, Matricaria inodora; conditions: Tripleurospermum inodorum, 504 h
Method in brief: as §1

AMARE [13] = assay: Pre-emergence herbicidal action against AMARE; type: in vivo, Amaranthus retroflexus; conditions: Amaranthus retroflexus, 504 h, scored visually after 3 weeks vs untreated controls, 100% = plants have died, 0% = like control plants
Method in brief: as §2

VIOTR [14] = assay: Post-emergence herbicidal action against VIOTR; type: in vivo, Viola tricolor; conditions: Viola tricolor, 504 h
Method in brief: as §1

DIGSA [15] = assay: Post-emergence herbicidal action against DIGSA; type: in vivo, Digitaria sanguinalis; conditions: Digitaria sanguinalis, 504 h
Method in brief: as §1

ABUTH [16] = assay: Pre-emergence herbicidal action against ABUTH; type: in vivo, Abutilon theophrasti; conditions: Abutilon theophrasti, 504 h
Method in brief: as §2

VERPE [17] = assay: Pre-emergence herbicidal action against VERPE; type: in vivo, Veronica persica; conditions: Veronica persica, 504 h
Method in brief: as §2

MATIN [18] = assay: Pre-emergence herbicidal action against MATIN; type: in vivo, Matricaria inodora; conditions: Tripleurospermum inodorum, 504 h
Method in brief: as §2

PHBPU [19] = assay: Pre-emergence herbicidal action against PHBPU; type: in vivo, Pharbitis purpurea; conditions: Ipomoea purpurea, 504 h, dosage 80 g/ha
Method in brief: as §2

SETVI [20] = assay: Pre-emergence herbicidal action against SETVI; type: in vivo, Setaria viridis; conditions: Setaria viridis, 504 h
Method in brief: as §2

ECHCG [21] = assay: Post-emergence herbicidal action against ECHCG; type: in vivo, Echinochloa crus-galli; conditions: Echinochloa crus-galli, 504 h, dosage 20 g/ha
Method in brief: as §1

HORMU [22] = assay: Pre-emergence herbicidal action against HORMU; type: in vivo, Hordeum murinum; conditions: Hordeum murinum, 504 h; 80 g/ha, pre-emergence
Method in brief: as §2

ABUTH [23] = assay: Post-emergence herbicidal action against ABUTH; type: in vivo, Abutilon theophrasti; conditions: Abutilon theophrasti, 504 h, visual assessment about 3 weeks after treatment vs untreated controls
Method in brief: as §1

VIOTR [24] = assay: Pre-emergence herbicidal action against VIOTR; type: in vivo, Viola tricolor; conditions: Viola tricolor, 504 h
Method in brief: as §2

SETVI [25] = assay: Post-emergence herbicidal action against SETVI; type: in vivo, Setaria viridis; conditions: Setaria viridis, 504 h
Method in brief: as §1

AVEFA [26] = assay: Post-emergence herbicidal action against AVEFA; type: in vivo, Avena fatua; conditions: Avena fatua, 504 h, 20 g/ha, visual assessment about 3 weeks after treatment, 100% = plants have died, 0% = like control plants
Method in brief: as §1

For Cc1c(C(=O)Nc2nnnn2C)ccc(C(F)(F)F)c1C(=O)NC1CC1 [Example 1-27], the pest or weed control at 20 g/ha (PHBPU [1]) was 90%, the pest or weed control at 20 g/ha (POLCO) was 90% and the pest or weed control at 20 g/ha (AMARE [2]) was 100%. The pest or weed control at 20 g/ha (HORMU [3]) was 80%, the pest or weed control at 80 g/ha (LOLRI) was 80% and the pest or weed control at 20 g/ha (VERPE [4]) was 100%. For the same compound, the pest or weed control at 20 g/ha (DIGSA [5]; dosage 20 g/ha) was 100%, the pest or weed control at 80 g/ha (DIGSA [5]; dosage 80 g/ha) was 100% and the pest or weed control at 20 g/ha (STEME [6]; 20 g/ha) was 100%. For the same compound, the pest or weed control at 5 g/ha (STEME [6]; dosage 5 g/ha) was 100%, the pest or weed control at 80 g/ha (AVEFA [7]) was 100% and the pest or weed control at 80 g/ha (ALOMY [8]) was 90%. For the same compound, the pest or weed control at 20 g/ha (ALOMY [9]) was 100%, the pest or weed control at 20 g/ha (STEME [10]; dosage 20 g/ha) was 90% and the pest or weed control at 80 g/ha (STEME [10]; dosage 80 g/ha) was 100%. It also gave a pest or weed control at 80 g/ha (ECHCG [11]) of 100%, a pest or weed control at 5 g/ha (MATIN [12]; dosage 5 g/ha) of 80% and a pest or weed control at 20 g/ha (MATIN [12]; dosage 20 g/ha) of 100%. For the same compound, the pest or weed control at 20 g/ha (AMARE [13]; 20 g/ha) was 100%, the pest or weed control at 80 g/ha (AMARE [13]; 80 g/ha) was 100% and the pest or weed control at 5 g/ha (VIOTR [14]; 5 g/ha) was 100%. It also gave a pest or weed control at 20 g/ha (VIOTR [14]; 20 g/ha) of 100%, a pest or weed control at 5 g/ha (DIGSA [15]; 5 g/ha) of 90% and a pest or weed control at 20 g/ha (DIGSA [15]; 20 g/ha) of 100%. For the same compound, the pest or weed control at 80 g/ha (ABUTH [16]; 80 g/ha, scored visually after 3 weeks vs untreated controls (100% = plants have died, 0% = like control plants)) was 100%, the pest or weed control at 20 g/ha (ABUTH [16]; dosage 20 g/ha, scored visually after 3 weeks vs untreated controls, 100% = plants have died, 0% = like control plants, read-out: Pre-emergence action against ABUTH (herbicidal activity in percent)) was 100% and the pest or weed control at 20 g/ha (VERPE [17]; dosage 20 g/ha) was 80%. For the same compound, the pest or weed control at 80 g/ha (VERPE [17]; dosage 80 g/ha) was 90%, the pest or weed control at 20 g/ha (MATIN [18]; dosage 20 g/ha) was 100% and the pest or weed control at 80 g/ha (MATIN [18]; dosage 80 g/ha) was 100%. It also gave a pest or weed control at 80 g/ha (PHBPU [19]) of 100%, a pest or weed control at 20 g/ha (SETVI [20]; dosage 20 g/ha) of 100% and a pest or weed control at 80 g/ha (SETVI [20]; dosage 80 g/ha) of 100%. It also gave a pest or weed control at 20 g/ha (ECHCG [21]) of 80%, a pest or weed control at 80 g/ha (HORMU [22]) of 80% and a pest or weed control at 5 g/ha (ABUTH [23]; dosage 5 g/ha) of 100%. It also gave a pest or weed control at 20 g/ha (ABUTH [23]; dosage 20 g/ha) of 100%, a pest or weed control at 20 g/ha (VIOTR [24]; dosage 20 g/ha) of 100% and a pest or weed control at 80 g/ha (VIOTR [24]; dosage 80 g/ha) of 100%. For the same compound, the pest or weed control at 5 g/ha (SETVI [25]; dosage 5 g/ha) was 100%, the pest or weed control at 20 g/ha (SETVI [25]; dosage 20 g/ha) was 100% and the pest or weed control at 20 g/ha (AVEFA [26]) was 100%.
